Experimental findings from a melting point compilation (Tetko et al.; mined from patent text by program, amines drawn as free bases though some values may be those of a salt) are described below.

By melting point is commonly meant the temperature, or range, at which the solid turns liquid.

`CCCn1c(CCO)nc2c(N)nc3cc(OCCCNC(=O)c4cccnc4)ccc3c21` gave a melting point of 184 °C.
In turn, `O=C(c1cccnc1)N1CCC(c2cccc(Cl)c2)=N1` showed a melting point of 124 to 126 °C.
With `CC1(C)Oc2ccc(C#N)cc2C(N(C(N)=O)c2ccc3c(c2)CN(Cc2ccccc2)C3)C1O` (stereo unspecified), the melting point is 168 to 175 °C.
In turn, `CCOC(=O)C1(c2ccc(Cl)cc2)OCC2(CO1)c1ccccc1Oc1ccccc12` registered a melting point of 131 to 132 °C.
With `Cc1nc(N)c2nc(C)n(CCOC/C=C/c3ccccc3)c2c1C`, the melting point was in the range of 144 to 145 °C.
For `O=C1Nc2cccc(Cl)c2C(=O)N2C[C@H](O)C[C@@H]12`, the melting point was 284 to 287 °C.
Regarding `CC(=O)C(Cl)=NNc1ccccc1`, the melting point lay within 132 to 134 °C.
`O=C1NCCN1c1ccc(S(=O)(=O)Nc2ccc3[nH]ccc3c2)cc1`: the melting point was 239 to 241 °C.
The compound `CC(CN1CCCC1)N1c2ccccc2Sc2ccc(C(=O)NCCC(C)(C)C)cc21` (racemic) displayed a melting point of 138 °C.
With `OC(c1ccncc1)(c1ccc(F)c(F)c1)c1ccc(F)c(F)c1` the figure was 147 to 149 °C; with `NC(=O)c1n[nH]c2ccc([N+](=O)[O-])cc12`, 221 to 226 °C.
The compound `CCCCc1ccc(-c2ccc(CCc3cc(F)cc(F)c3)cc2)cc1` displayed a melting point of 59 °C.
The compound `CC(C)(C)OC(=O)N1CCC(S(=O)(=O)Cl)CC1` returned a melting point of 84.6 to 85.7 °C.
Turning to `CC1CN(Cn2cc(C#N)c(-c3cccc(Cl)c3Cl)c2)CC(C)O1` (stereo unspecified), the melting point fell in the range of 91 to 97 °C.
Regarding `CC1CC(=O)NN=C1c1ccc(NCC(C)(C)[N+](=O)[O-])cc1` (stereo unspecified), the melting point was 187 to 189 °C.
Consider `COc1ccc(C2CC(=O)N(Cc3ccc4ccc(Cl)cc4n3)C2)cc1OC1CCCC1` (stereo unspecified), for which the melting point lay within 106 to 107 °C.
With `C=CS(=O)(=O)CC(=O)N1CCN(C(=O)CS(=O)(=O)C=C)CC1`, the melting point came to 215 °C.
Next, `COc1cccc(C(O)C(C)(C)NC(=O)Cc2ccc(OC)c(OC)c2)c1` (stereo unspecified): 137 to 138 °C; `CC(=O)c1c(O)ccc2[nH]ncc12`: 188 to 191 °C.
Next, `CCCOc1ccc([N+](=O)[O-])nc1C`: 54 to 56 °C.
Consider `Cn1c(C(=O)c2ccc(F)cc2)cc2cc(OCc3ccccc3)ccc21`, for which the melting point lay in the range of 118 to 120 °C.
The compound `Cc1ccc(-c2cc(-c3ccc(Cl)cc3)n[nH]2)cc1` registered a melting point of 228 °C.
Next, `CC(C)(C)c1ccc(C(=O)c2ccc3n2Cc2ccccc2N(C(=O)c2ccc(C4CCCCC4)cc2)C3)cc1`: 143 to 145 °C; `CC(C)c1ccc([N+](=O)[O-])c(C(C)C)c1NC(=O)CN1CCN(CCCSc2nc3ccccc3o2)CC1`: 156 to 158 °C; `Brc1ccc(/C=N/c2ccccc2)c(OCc2ccccc2)c1`: 100 °C.
In turn, `CCC1Cc2cc(OCC(=O)O)cc(Br)c2C1=O` (stereo unspecified) had a melting point of 146 to 148 °C.
Take `Cc1nc2c(N)cc(S(=O)(=O)N(C)C)cc2n1C`: the melting point fell in the range of 255 to 258 °C.
As to `S=C(NCCc1ccccc1)N1CCN(c2cnccn2)CC1`, the melting point was 162 to 163 °C.
For `COc1c(-c2ccc3cc(NS(C)(=O)=O)ccc3c2)cc(N2CCCC2=O)cc1C(C)(C)C`, the melting point lay in the range of 229 to 230 °C.
The compound `CN(C)Cc1cccc(-c2cc3c(Nc4ccc(F)c(Cl)c4)ncnc3[nH]2)c1` displayed a melting point of 218 to 220 °C.
Compound `Cc1c(C(=O)O)cnn1-c1ccc(F)c(Cl)c1` gave a melting point of 187 °C.
With `CC(C)(C)OC(=O)NC(=N)c1ccc(C(=O)NCCC(=O)OCc2ccccc2)cc1`, the melting point was in the range of 127 to 128 °C.
For `CCCCCCCCCC(=O)SCC(C)(C(=O)Nc1cccc(C(=O)O)c1C)c1ccccc1` (stereo unspecified), the melting point is 105 to 111 °C.
Compound `Cc1ccccc1CN1CCN(C2=NC3(C=CC(=O)C=C3)C(c3ccccc3)=C2)CC1` gave a melting point of 193 °C.
The compound `Oc1ccc(-c2nn(-c3cccc(F)c3)c3cc(O)ccc23)c(O)c1` displayed a melting point above 200 °C.
`COc1sc(-c2ccc(NS(=O)(=O)c3sc4ccc(F)cc4c3C)c(S(C)(=O)=O)c2)nc1C` registered a melting point of 216 to 217 °C.
`CCOC(=O)Cc1c(C)n(Cc2ccccc2)c2cccc(OCc3coc(-c4ccccc4)n3)c12` returned a melting point of 103 to 105 °C.
Compound `CN1C(=O)NC(=O)C(C=O)C1=O` (stereo unspecified) came in with a melting point of 197 to 199 °C.
With `COC(=O)C1CC1c1ccc(OCc2cccc(Oc3ccccc3)c2)cc1` (stereo unspecified), the melting point lay within 55 to 56 °C.
The compound `O=C(O)C(=O)CC(=O)c1cc(C(=O)CC(=O)C(=O)O)n(Cc2ccc(F)cc2)n1` yielded a melting point of 215 to 217 °C.
`Cc1ccc(S(=O)(=O)CCCc2c[nH]c([N+](=O)[O-])n2)cc1` showed a melting point of 108 to 111 °C.
The compound `Nc1nc2c(sc(=O)n2Cc2ccccc2)c(=O)[nH]1` gave a melting point above 320 °C.
For the compound `CCCCc1nc(=O)c2cc(-c3nnn(C(c4ccccc4)(c4ccccc4)c4ccccc4)n3)ccc2[nH]1`, the melting point was 182 °C.
Regarding `Cc1cc(C(N)=O)ccc1O[C@@H]1CCNC[C@H]1O` (relative stereo), the melting point fell in the range of 210 to 212 °C.
`CC=CC(=O)c1c(CCC)n(Cc2ccccc2Cl)c2cc(C(N)=O)ccc12` returned a melting point of 186 °C.
For the compound `Cn1cc(C(F)(F)F)nc1-c1ccc(OCC(O)CNCCOc2ccc(O)c(C(N)=O)c2)cc1` (stereo unspecified), the melting point is 195 to 197 °C.
The compound `Cc1ccc(COc2ncc(F)c(NS(C)(=O)=O)n2)cc1` yielded a melting point of 145 to 148 °C.
`COC(=O)c1c(C(F)F)nc(C(F)(F)F)c(C(=O)SC)c1NC1CC1` gave a melting point of 108 to 109 °C.
Consider `O=C(O)c1cc(O)c(-c2ccccc2)c([N+](=O)[O-])c1`, for which the melting point was in the range of 213 to 215 °C.
The compound `CCOc1cc2c(c3c1OC(C)(C)C3)C(c1ccccc1)=[N+]([O-])C(C)(C)C2` gave a melting point of 125 to 126 °C.
Next, `COc1cccc2oc(Cn3nc(-c4ccc(OC(C)C)c(F)c4)c4c(N)ncnc43)c(-c3cccc(F)c3)c(=O)c12`: 145 to 148 °C; `Cc1ccc(Cl)c(Nc2ccccc2-c2nnc(N)o2)c1Cl`: 255 to 257 °C; `Cc1nc(C)n(-c2cc(C)c3[nH]c(=O)ccc3c2)c1Br`: 273 °C.
`COc1ccc(-c2nc(C3=NNC(=O)CC3)sc2-c2ccc(OC)cc2)cc1` showed a melting point of 242 to 247 °C.
Regarding `O=S(=O)(c1ccccc1)N1CCC(C(NCCc2ccccc2)c2ccc(F)cc2)CC1` (stereo unspecified), the melting point lay within 115 to 117 °C.
Consider `CN(C)CCCC(C#N)(c1ccc(Cl)cc1)c1ccc(-n2ncc(=O)[nH]c2=O)cc1Cl` (stereo unspecified), for which the melting point was 140 °C.
`Cc1ccccc1NC(=O)Nc1ccc(C(=O)N2Cc3ccccc3Cc3ccccc32)cc1` registered a melting point of 188 to 190 °C.
In turn, `COC(F)(F)C(F)(F)C1(C(F)(F)C(F)(F)OC)OCCO1` yielded a melting point of 30 to 40 °C.
`Cc1nsc(NC(=O)Cc2ccc(O)c(N)c2)c1Cl` showed a melting point of 239 to 243 °C.
Compound `CS(=O)(=O)c1ccc(C2=C(I)C(=O)C3(CCOCC3)O2)cc1` yielded a melting point of 210 to 213 °C.
In turn, `Cc1ccccc1C(=O)Nc1ccc(Cl)c(C(=O)OC(C)C)c1` registered a melting point of 137 to 138 °C.
The compound `CC(C)CCS(=O)(=O)NC(=O)/C=C/c1cc(OCC2CC2)nn1Cc1ccc(C(F)(F)F)cc1Cl` gave a melting point of 156 to 158 °C.
With `Clc1ccc(C(c2ccccc2)N2CCN(c3nc4cccc5c4n3CCC5)CC2)cc1` (stereo unspecified), the melting point was 167 to 169 °C.
With `CC(=O)Oc1c(C)c(CCl)nc2ccccc12` the figure was 108 to 109 °C; with `CNC(=NS(=O)(=O)N1CCCCC1)N1CC(c2ccccc2)C(c2ccc(Cl)cc2)=N1` (stereo unspecified), 175 to 177 °C.
`C=CCc1c(NC(=O)C(F)(F)F)ccc2c(=O)cc(C(=O)OCC)oc12` showed a melting point of 136 to 137 °C.
With `COc1ccc(S(=O)(=O)N(CCNC(=O)NCc2ccccc2)c2ccc(C)cc2Cc2c(F)cccc2F)cc1OC` the figure was 100 °C; with `C[C@@H](Oc1cc(-c2cnn(C3CCNCC3)c2)cnc1N)c1c(Cl)ccc(F)c1Cl`, 194 °C.
With `CSCC12CCC(=CF)C=C1CCC1C3CCC(=O)C3(C)CCC12` (stereo unspecified), the melting point fell in the range of 146 to 147 °C.
`C=C=COc1ccc(-c2ccc(OC=C=C)cc2)cc1` displayed a melting point of 135 to 138 °C.
Next, `CC(C)[C@H](NC(=O)CC[C@H](C)CNC(=O)COc1ccccc1)[C@@H](O)c1c(-c2ccccc2)c1=O`: 74 to 84 °C.
Consider `O=C(c1cccs1)c1cnc2[nH]ncc2c1NC1CC1`, for which the melting point lay in the range of 268 to 270 °C.
Regarding `O=C(N[C@H]1CC[C@H](CCN2CCN(c3nccc4c3CCO4)CC2)CC1)C1(O)CCC1`, the melting point was determined as 178 °C.
In the case of `CC1(C)CC(=O)c2c(ncc3[nH]c4cc(Cl)ccc4c23)C1`, the melting point was in the range of 257 to 259 °C.
For `COC(=O)c1ccc(Br)cc1COc1ccccc1`, the melting point was in the range of 69.5 to 70.5 °C.
In the case of `CCCCc1cnc(NCCCOc2cccc(CN3CCCCC3)c2)[nH]c1=O`, the melting point was 105 to 106 °C.
With `COc1ccc(C(=O)c2ccc(OCc3nc(-c4ccccc4)oc3C)cc2)c(OC(F)(F)C(=O)O)c1` the figure was 166 to 167 °C; with `Nc1nc(N)nc(-c2csc(-c3ccc(C(F)(F)F)cc3)n2)n1`, above 260 °C.
For the compound `COc1ccc2c(c1)c(CC(=O)O)c(C)n2-c1ccnc2cc(Cl)ccc12`, the melting point fell in the range of 248 to 250 °C.
In turn, `N#Cc1c(-c2ccccc2)nn2ccccc12` came in with a melting point of 138 to 139 °C.
In turn, `Cc1nc(-c2ccccc2)nc(-c2ccncc2)c1N` gave a melting point of 208 to 209 °C.
Compound `COc1ccc(C(=O)NCCN2CCC(Oc3ccc(Cl)c(Cl)c3)CC2)cc1` gave a melting point of 110 to 112 °C.
In turn, `Cc1cc(-c2ccc(C(F)(F)F)cc2)cn2c(-c3nc(-c4ccc(S(N)(=O)=O)cc4)no3)cnc12` returned a melting point of 290 °C.
Next, `O=S(=O)(NCCCCOc1ccc(-n2ccnc2)cc1)c1ccc(Br)cc1`: 134 to 136 °C; `O=C(O)COc1ccc(C(=O)O)c(Cl)c1Cl`: above 250 °C; `Cc1c(F)c([N+](=O)[O-])cc2oc(=O)[nH]c12`: 194 to 196 °C.
